These results are taken from US8119681B2, “2-[1-phenyl-5-hydroxy or methoxy-4alpha-methyl-hexahydrocyclopenta [ƒ]indazole-5-YL]ethyl phenyl derivatives as glucocorticoid receptor ligands” (Merck Sharp & Dohme Corp., priority 2006, dated 2012).

Structures are written as SMILES. Where two headings read alike, the source gives them in different places.

The target of this test is T1, human GR (Homo sapiens, UniProt P04150).
T1 sequence (P04150 1-777): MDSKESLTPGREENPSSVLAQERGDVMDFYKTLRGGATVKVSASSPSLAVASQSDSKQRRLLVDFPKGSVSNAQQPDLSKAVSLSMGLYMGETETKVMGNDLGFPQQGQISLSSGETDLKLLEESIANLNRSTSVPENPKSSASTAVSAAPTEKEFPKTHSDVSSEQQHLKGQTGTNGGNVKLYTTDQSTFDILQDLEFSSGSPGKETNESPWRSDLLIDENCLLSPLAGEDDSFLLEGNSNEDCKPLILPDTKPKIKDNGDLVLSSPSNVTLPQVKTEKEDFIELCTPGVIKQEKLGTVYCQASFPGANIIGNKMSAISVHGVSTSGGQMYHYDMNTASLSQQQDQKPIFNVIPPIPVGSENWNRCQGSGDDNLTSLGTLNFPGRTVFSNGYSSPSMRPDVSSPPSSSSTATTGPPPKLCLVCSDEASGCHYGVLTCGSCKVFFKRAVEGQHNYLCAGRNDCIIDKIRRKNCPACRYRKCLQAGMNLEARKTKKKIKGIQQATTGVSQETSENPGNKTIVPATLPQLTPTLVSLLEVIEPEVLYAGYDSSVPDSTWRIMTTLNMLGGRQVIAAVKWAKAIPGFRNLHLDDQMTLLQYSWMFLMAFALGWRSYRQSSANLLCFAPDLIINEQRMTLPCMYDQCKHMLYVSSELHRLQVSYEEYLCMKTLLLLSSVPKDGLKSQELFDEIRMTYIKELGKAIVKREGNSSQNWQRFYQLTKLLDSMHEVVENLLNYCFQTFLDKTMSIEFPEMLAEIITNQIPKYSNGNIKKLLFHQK
The experiment in a line: Transrepression Assay (GITAR), TNFα-β-lactamase reporter gene in U937 cells. It is filed as cell-based. Further details: U937 cells contain an endogenous glucocorticoid receptor (GR); endogenous in cells; host or cells: U937 cells stably transfected with the TNF-α promoter/β-lactamase reporter only. A digest of the protocol:
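Reporter readout used CCF2-AM loading for 70–90 min at room temperature after overnight (~18 h, 37 °C) PMA (5 ng/ml final) and LPS (100 ng/ml final) stimulation of compound-treated (30–45 min) TNFα-β-lactamase U937 cells expressing native GR. Activity was normalised to 100 nM dexamethasone repression.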

Where [1] appears, read: U-937, 100 nM dexamethasone = 100% activity, read-out: maximal activity in the transrepression assay.

Regarding `CO[C@@]1(CCc2ccc(C(F)(F)F)cc2C(N)=O)CCC2=Cc3c(cnn3-c3ccc(F)cc3)C[C@@]21C` [Example 179, 2-{2-[(4αS,5R)-1-(4-fluorophenyl)-5-methoxy-4α-methyl-1,4,4α,5,6,7-hexahydrocyclopenta[f]indazol-5-yl]ethyl}-5-(trifluoromethyl)benzamide], the Emax under setting [1] lay in the range of 5 to 100%. As for `C[C@]12Cc3cnn(-c4ccc(F)cc4)c3C=C1CC[C@@]2(O)CCc1ccc(C#N)cc1C(N)=O` [Example 180, 5-cyano-2-{2-[(4αS,5R)-1-(4-fluorophenyl)-5-hydroxy-4α-methyl-1,4,4α,5,6,7-hexahydrocyclopenta[f]indazol-5-yl]ethyl}benzamide], under setting [1], the Emax fell in the range of 5 to 100%. Consider `Cc1ccc(CC[C@]2(O)CCC3=Cc4c(cnn4-c4ccc(F)cc4)C[C@@]32C)c(C(N)=O)c1` [Example 181, 2-{2-[(4αS,5R)-1-(4-fluorophenyl)-5-hydroxy-4α-methyl-1,4,4α,5,6,7-hexahydrocyclopenta[f]indazol-5-yl]ethyl}-5-methylbenzamide], for which the Emax under setting [1] was in the range of 5 to 100%. On to `Cc1cccc(CC[C@]2(O)CCC3=Cc4c(cnn4-c4ccc(F)cc4)C[C@@]32C)c1C(N)=O` [Example 182, 2-{2-[(4αS,5R)-1-(4-fluorophenyl)-5-hydroxy-4α-methyl-1,4,4α,5,6,7-hexahydrocyclopenta[f]indazol-5-yl]ethyl}-6-methylbenzamide], for which the Emax under setting [1] was 5 to 100%. For `C[C@]12Cc3cnn(-c4ccc(F)cc4)c3C=C1CC[C@@]2(O)CCc1ccc(F)c(F)c1C(N)=O` [Example 183, 2,3-difluoro-6-{2-[(4αS,5R)-1-(4-fluorophenyl)-5-hydroxy-4α-methyl-1,4,4α,5,6,7-hexahydrocyclopenta[f]indazol-5-yl]ethyl}benzamide], the Emax under setting [1] lay within 5 to 100%. Turning to `C[C@]12Cc3cnn(-c4ccc(Cl)cc4)c3C=C1CC[C@@]2(O)CCc1ccccc1C(N)=O` [Example 184, 2-{2-[(4αS,5R)-1-(4-chlorophenyl)-5-hydroxy-4α-methyl-1,4,4α,5,6,7-hexahydrocyclopenta[f]indazol-5-yl]ethyl}benzamide], the Emax under setting [1] was in the range of 5 to 100%.

Consider `Cc1cccc(CC[C@]2(O)CCC3=Cc4c(cnn4-c4ccc(F)c(F)c4)C[C@@]32C)c1C(N)=O` [Example 186, 2-{2-[(4αS,5R)-1-(3,4-difluorophenyl)-5-hydroxy-4α-methyl-1,4,4α,5,6,7-hexahydrocyclopenta[f]indazol-5-yl]ethyl}-6-methylbenzamide], for which, under setting [1], the Emax fell in the range of 5 to 100%.

With `C[C@]12Cc3cnn(-c4cccc(F)c4)c3C=C1CC[C@@]2(O)CCc1ccccc1C(N)=O` [Example 187, 2-{2-[(4αS,5R)-1-(3-fluorophenyl)-5-hydroxy-4α-methyl-1,4,4α,5,6,7-hexahydrocyclopenta[f]indazol-5-yl]ethyl}benzamide], under setting [1], the Emax is 5 to 100%. Regarding `C[C@]12Cc3cnn(-c4ccc(F)cc4)c3C=C1CC[C@@]2(O)CCc1cccc(C(F)(F)F)c1C(N)=O` [Example 188, 2-{2-[(4αS,5R)-1-(4-fluorophenyl)-5-hydroxy-4α-methyl-1,4,4α,5,6,7-hexahydrocyclopenta[f]indazol-5-yl]ethyl}-6-(trifluoromethyl)benzamide], under setting [1], the Emax was in the range of 5 to 100%. As for `C[C@]12Cc3cnn(-c4ccc(F)cc4)c3C=C1CC[C@@]2(O)CCc1ccc(-c2ccccc2)cc1C(N)=O` [Example 190, 4-{2-[(4αS,5R)-1-(4-fluorophenyl)-5-hydroxy-4α-methyl-1,4,4α,5,6,7-hexahydrocyclopenta[f]indazol-5-yl]ethyl}biphenyl-3-carboxamide], the Emax under setting [1] is 5 to 100%. Still for that read-out and setting: the value for `C[C@]12Cc3cnn(-c4ccc(F)cc4)c3C=C1CC[C@@]2(O)CCc1ccccc1C(O)C(N)=O` (stereo partly drawn) [Example 192, 2-(2-{2-[(4αS,5R)-1-(4-fluorophenyl)-5-hydroxy-4α-methyl-1,4,4α,5,6,7-hexahydrocyclopenta[f]indazol-5-yl]ethyl}phenyl)-2-hydroxyacetamide] was 5 to 100%; that for `C[C@]12Cc3cnn(-c4ccc(F)cc4)c3C=C1CC[C@@]2(O)CCc1cc(F)ccc1CC(N)=O` [Example 193, 2-(4-fluoro-2-{2-[(4αS,5R)-1-(4-fluorophenyl)-5-hydroxy-4α-methyl-1,4,4α,5,6,7-hexahydrocyclopenta[f]indazol-5-yl]ethyl}phenyl)acetamide] was 5 to 100%; that for `C[C@]12Cc3cnn(-c4ccc(F)c(F)c4)c3C=C1CC[C@@]2(O)CCc1ccccc1CC(N)=O` [Example 195, 2-(2-{2-[(4αS,5R)-1-(3,4-difluorophenyl)-5-hydroxy-4α-methyl-1,4,4α,5,6,7-hexahydrocyclopenta[f]indazol-5-yl]ethyl}phenyl)acetamide] was 5 to 100%.

For the compound `C[C@]12Cc3cnn(-c4ccc(F)cc4)c3C=C1CC[C@@]2(O)CCc1ccccc1C(O)(C(N)=O)C1CC1` (stereo partly drawn) [Example 200, 2-cyclopropyl-2-(2-{2-[(4αS,5R)-1-(4-fluorophenyl)-5-hydroxy-4α-methyl-1,4,4α,5,6,7-hexahydrocyclopenta[f]indazol-5-yl]ethyl}phenyl)-2-hydroxyacetamide], where the note is “U-937, read-out: maximal activity in the transrepression assay”, the Emax was in the range of 5 to 100%.
